Where a name gives a salt, the structure may show the parent alone. Read-outs that look alike come from different tables or passages of the source.

The text below walks through data of article PMC6796870, “A two-step lineage reprogramming strategy to generate functionally competent human hepatocytes from fibroblasts” (Cell Research, 2019).

For series [1] the following is noted: Table S9; ref 1,2 (Chen, M. et al. 2011); cited from earlier work.
Series [2] has as its system hiHeps. Nature of the series: Toxicity assay (TC50, 24 h, minimum of four viability parameters) in hiHeps. The conditions noted are these: concentration giving 50% reduction of cell viability, values rounded for ease of use.
A further series deals with HBV. Nature of the series: HBV infection of hiHeps, antiviral drug response. The format is cell-based, hepatitis B virus. The following applies: HBV-infected hiHeps; for HBV-DNA / HBV-RNA / HBV-proteins: 36 days, LAM 1 μM, ETV 0.5 μM during and after infection.
In series [3] the test system is hiHeps.
For series [4], the system named is hiHeps. The conditions noted are these: human.
In series [5] the test system is hiHeps. The format is cell-based, human. The protocol: The correlation between groups was evaluated by the Pearson correlation coefficient (r). b Time- and dose-dependent chronic toxicity of troglitazone in hiHeps. Mitochondrial activities were normalized to DMSO-treated cultures at corresponding day. n = 6. c Fluorescence evaluation of the pathological effects of DILI in hiHeps. Steatosis (up) and phospholipidosis (down) were evaluated in hiHeps after exposure to steatosis-causing compounds and phospholipidosis-causing compounds, respectively. Rifampin (non-steatosis/phospholipidosis-causing drug) or DMSO treatment were set as controls. For all compounds, images were captured at the concentration of 80% TC50. For all measurements, ‘n’ represents the number of biological replicates. The scale bars represent 50 μm. Data are presented as mean ± SEM

A further series concerns IFN-stimulated genes. Nature of the series: Expression of IFN-stimulated genes in hiHeps. The series is classed as cell-based, human. The conditions noted are these: IFN-α treatment.

Regarding `CC(=O)O[C@@]12CO[C@@H]1C[C@H](O)[C@@]1(C)C(=O)[C@H](O)C3=C(C)[C@@H](OC(=O)[C@H](O)[C@@H](NC(=O)OC(C)(C)C)c4ccccc4)C[C@@](O)([C@@H](OC(=O)c4ccccc4)[C@H]21)C3(C)C` [Docetaxel], the Label entry in series [1] is “DILI concern by FDA”.

Consider `CCN(CC)CCNC(=O)c1c(C)[nH]c(/C=C2\C(=O)Nc3ccc(F)cc32)c1C` [Sunitinib], for which the Label result in series [1] is listed as “DILI concern by FDA”.

Compound `CCCCc1oc2ccccc2c1C(=O)c1cc(I)c(OCCN(CC)CC)c(I)c1` [amiodarone] came in with a TC50 in the series with hiHeps [2] of approximately 30 µM.

Consider `CN(C)CCCN1c2ccccc2Sc2ccc(Cl)cc21` [chlorpromazine], for which the TC50 entry in the series with hiHeps [2] is listed as “≈ 25 μM”.

Take `C=C1[C@H](CO)[C@@H](O)C[C@@H]1n1cnc2c(=O)[nH]c(N)nc21` [entecavir]: in the series on HBV, the HBV-DNA entry is given as “greatly inhibited”, the HBV-RNA entry was “moderate effect” and the HBV-proteins entry was “moderate effect”.

For `CC(C)C(=O)Nc1ccc([N+](=O)[O-])c(C(F)(F)F)c1` [flutamide], in the series with hiHeps [3], the “Toxicity after treatment with CYP3A4 inducer (rifampin)” value was “increased”. The “DDI effects on toxicity (rifampin, rifampin + ketoconazole)” value in the series on HepG2 cells is listed as “not detected”.

With `Nc1ccn([C@@H]2CS[C@H](CO)O2)c(=O)n1` [lamivudine], in the series with HBV, the HBV-DNA result is on record as “greatly inhibited”, the HBV-RNA entry was “moderate effect” and the HBV-proteins entry is “moderate effect”.

The compound `CO[C@H]1/C=C/O[C@@]2(C)Oc3c(C)c(O)c4c(O)c(c(/C=N/N5CCN(C)CC5)c(O)c4c3C2=O)NC(=O)/C(C)=C\C=C\[C@H](C)[C@H](O)[C@@H](C)[C@@H](O)[C@@H](C)[C@H](OC(C)=O)[C@@H]1C` [rifampin] gave a TC50 with hiHeps [2] of approximately 100 µM.

`CN(C)[C@@H]1C(O)=C(C(N)=O)C(=O)[C@@]2(O)C(O)=C3C(=O)c4c(O)cccc4[C@@](C)(O)[C@H]3C[C@@H]12` [tetracycline hydrochloride] displayed a TC50 in the series on hiHeps [4] of approximately 400 µM.

In the case of `Cc1c(C)c2c(c(C)c1O)CCC(C)(COc1ccc(CC3SC(=O)NC3=O)cc1)O2` (centres unmarked) [troglitazone], in the series with hiHeps [5], the Chronic toxicity result was “extensive cell death”.

Consider aflatoxin B1, for which, in the series with hiHeps [3], the “Toxicity after rifampin plus CYP3A4 inhibitor (ketoconazole)” value is “rescued” and the “Toxicity after treatment with CYP3A4 inducer (rifampin)” value is “increased”. Further, the “DDI effects on toxicity (rifampin, rifampin + ketoconazole)” value with HepG2 cells is on record as “not detected”.

Regarding interferon-alpha, the “All major HBV markers (HBV-DNA, HBV-RNA, HBV-proteins)” value in the series on HBV (1000 U/mL after infection) is on record as “inhibitory effect”. For the same compound, in the series on IFN-stimulated genes, the “Expression of IFN-stimulated genes” value was “upregulation”.
